According to patent US20260266848A1, “COMPOSITIONS AND METHODS FOR DIAGNOSING AND TREATING DYSTONIA” (Duke University, priority 2023, published 2026):

Tested on: WT MEF EVs
Assay: Quantitative LC-MS/MS proteomics of EVs from ISRIB-treated WT MEF cultures
Assay type: cell-based, mouse
Parameters: key to ISRIB and DYT Parallel Direction / ISRIB and DYT Parallel Direction, Ctdsp1 / ISRIB and DYT Parallel Direction, Pcdh19 / ISRIB and DYT Parallel Direction, Tspan7 / ISRIB and DYT Parallel Direction, Myo1e / ISRIB and DYT Parallel Direction, Plpp3 / ISRIB and DYT Parallel Direction, Sh3bp4 / ISRIB and DYT Parallel Direction, Dnajc7 / ISRIB and DYT Parallel Direction, Drg1 / ISRIB and DYT Parallel Direction, Maea: YES = protein abundance effect similar to DYT/WT

O=C(COc1ccc(Cl)cc1)NC1CCC(NC(=O)COc2ccc(Cl)cc2)CC1 (stereo not shown) [ISRIB, reference compound]
genotype-disrupted proteins (n=363) reproduced by ISRIB (50 nM, 24 h, p<0.05): 7% | EV proteins disrupted by ISRIB treatment of WT cells (50 nM, 24 h, p<0.05, of 1974 proteins): 5% | WT + ISRIB/WT Cohen's d, Brd4 (EV protein Brd4 (Q9ESU6)): 0.37 | WT + ISRIB/WT Cohen's d, Cdk11b (EV protein Cdk11b (P24788)): 4.28 | WT + ISRIB/WT Cohen's d, Cfdp1 (EV protein Cfdp1 (O88271)): 8.58 | WT + ISRIB/WT Cohen's d, Cstf1 (EV protein Cstf1 (Q99LC2)): 1.34 | WT + ISRIB/WT Cohen's d, Ctdsp1 (EV protein Ctdsp1 (P58466)): −10.61 | ISRIB and DYT Parallel Direction, Ctdsp1 (EV protein Ctdsp1 (P58466), WT + ISRIB vs WT): YES | WT + ISRIB/WT Cohen's d, Dcaf8 (EV protein Dcaf8 (Q8N7N5)): 0.84 | WT + ISRIB/WT Cohen's d, Dnajc7 (EV protein Dnajc7 (Q9QYI3)): −2.37 | ISRIB and DYT Parallel Direction, Dnajc7 (EV protein Dnajc7 (Q9QYI3), WT + ISRIB vs WT): YES | WT + ISRIB/WT Cohen's d, Drg1 (EV protein Drg1 (P32233)): −1.58 | ISRIB and DYT Parallel Direction, Drg1 (EV protein Drg1 (P32233), WT + ISRIB vs WT): YES | WT + ISRIB/WT Cohen's d, Edil3 (EV protein Edil3 (O35474)): 3.24 | WT + ISRIB/WT Cohen's d, Grwd1 (EV protein Grwd1 (Q810D6)): 4.92 | WT + ISRIB/WT Cohen's d, Heatr3 (EV protein Heatr3 (Q8BQM4)): 1.40 | WT + ISRIB/WT Cohen's d, Hmga2 (EV protein Hmga2 (P52927)): 0.21 | WT + ISRIB/WT Cohen's d, Kntc1 (EV protein Kntc1 (Q8C3Y4)): 0.31 | WT + ISRIB/WT Cohen's d, Lpar6 (EV protein Lpar6 (Q8BMC0)): −1.25 | WT + ISRIB/WT Cohen's d, Lsm4 (EV protein Lsm4 (Q9QXA5)): 0.61 | WT + ISRIB/WT Cohen's d, Maea (EV protein Maea (Q4VC33)): −2.82 | ISRIB and DYT Parallel Direction, Maea (EV protein Maea (Q4VC33), WT + ISRIB vs WT): YES | WT + ISRIB/WT Cohen's d, Myo1e (EV protein Myo1e (E9Q634)): −1.56 | ISRIB and DYT Parallel Direction, Myo1e (EV protein Myo1e (E9Q634), WT + ISRIB vs WT): YES | WT + ISRIB/WT Cohen's d, Naa50 (EV protein Naa50 (Q6PGB6)): 1.03 | WT + ISRIB/WT Cohen's d, Ndrg1 (EV protein Ndrg1 (Q62433)): 1.14 | WT + ISRIB/WT Cohen's d, P3h4 (EV protein P3h4 (Q8K2B0)): 1.07 | WT + ISRIB/WT Cohen's d, Pacsin3 (EV protein Pacsin3 (Q99JB8)): −2.60 | WT + ISRIB/WT Cohen's d, Pcdh19 (EV protein Pcdh19 (Q80TF3)): −2.26 | ISRIB and DYT Parallel Direction, Pcdh19 (EV protein Pcdh19 (Q80TF3), WT + ISRIB vs WT): YES | WT + ISRIB/WT Cohen's d, Plpp3 (EV protein Plpp3 (Q99JY8)): 4.49 | ISRIB and DYT Parallel Direction, Plpp3 (EV protein Plpp3 (Q99JY8), WT + ISRIB vs WT): YES | WT + ISRIB/WT Cohen's d, Rbm17 (EV protein Rbm17 (Q8JZX4)): 0.36 | WT + ISRIB/WT Cohen's d, Sbno1 (EV protein Sbno1 (Q689Z5)): 0.31 | WT + ISRIB/WT Cohen's d, Sec61b (EV protein Sec61b (Q9CQS8)): 3.71 | WT + ISRIB/WT Cohen's d, Sh3bp4 (EV protein Sh3bp4 (Q921I6)): −0.29 | ISRIB and DYT Parallel Direction, Sh3bp4 (EV protein Sh3bp4 (Q921I6), WT + ISRIB vs WT): YES | WT + ISRIB/WT Cohen's d, Srrm2 (EV protein Srrm2 (Q8BTI8)): 0.17 | WT + ISRIB/WT Cohen's d, Sumo1 (EV protein Sumo1 (P63166)): 5.82 | WT + ISRIB/WT Cohen's d, Tes (EV protein Tes (P47226)): 1.50 | WT + ISRIB/WT Cohen's d, Timp3 (EV protein Timp3 (P39876)): −3.42 | WT + ISRIB/WT Cohen's d, Tspan7 (EV protein Tspan7 (Q62283)): −0.21 | ISRIB and DYT Parallel Direction, Tspan7 (EV protein Tspan7 (Q62283), WT + ISRIB vs WT): YES | WT + ISRIB/WT Cohen's d, Unc119b (EV protein Unc119b (Q8C4B4)): 0.17 | proteins reduced in both mouse and human EVs whose abundance is modulated toward DYT1-like in WT cells (and toward correction by salubrinal in DYT1 cells) (ISRIB): 4 of the 7 | Acaa1a (ACAA1) EV abundance Cohen's d (WT+ISRIB/WT, 50 nM, 24 h): −0.8751 | Acaa1a (ACAA1) EV abundance Log2_FC (WT+ISRIB/WT, 50 nM, 24 h): −0.6305 | Ano6 (ANO6) EV abundance Cohen's d (WT+ISRIB/WT, 50 nM, 24 h): 0.8352 | Ano6 (ANO6) EV abundance Log2_FC (WT+ISRIB/WT, 50 nM, 24 h): 0.2496 | Ap1b1 (AP1B1) EV abundance Cohen's d (WT+ISRIB/WT, 50 nM, 24 h): −0.2382 | Ap1b1 (AP1B1) EV abundance Log2_FC (WT+ISRIB/WT, 50 nM, 24 h): −0.1813 | Arl8b (ARL8B) EV abundance Cohen's d (WT+ISRIB/WT, 50 nM, 24 h): −0.8778 | Arl8b (ARL8B) EV abundance Log2_FC (WT+ISRIB/WT, 50 nM, 24 h): −0.2989 | Bzw2 (BZW2) EV abundance Cohen's d (WT+ISRIB/WT, 50 nM, 24 h): −0.9186 | Bzw2 (BZW2) EV abundance Log2_FC (WT+ISRIB/WT, 50 nM, 24 h): 0.7265 | Cryab (CRYAB) EV abundance Cohen's d (WT+ISRIB/WT, 50 nM, 24 h): −0.1165 | Cryab (CRYAB) EV abundance Log2_FC (WT+ISRIB/WT, 50 nM, 24 h): 0.1177 | DIst (DLST) EV abundance Cohen's d (WT+ISRIB/WT, 50 nM, 24 h): 0.6821 | DIst (DLST) EV abundance Log2_FC (WT+ISRIB/WT, 50 nM, 24 h): −1.897 | Ehd4 (EHD4) EV abundance Cohen's d (WT+ISRIB/WT, 50 nM, 24 h): −1.159 | Ehd4 (EHD4) EV abundance Log2_FC (WT+ISRIB/WT, 50 nM, 24 h): −0.09267 | Flna (FLNA) EV abundance Cohen's d (WT+ISRIB/WT, 50 nM, 24 h): −0.09039 | Flna (FLNA) EV abundance Log2_FC (WT+ISRIB/WT, 50 nM, 24 h): −0.2341 | Fscn1 (FSCN1) EV abundance Cohen's d (WT+ISRIB/WT, 50 nM, 24 h): −0.9728 | Fscn1 (FSCN1) EV abundance Log2_FC (WT+ISRIB/WT, 50 nM, 24 h): −0.2944 | Gart (GART) EV abundance Cohen's d (WT+ISRIB/WT, 50 nM, 24 h): −0.1196 | Gart (GART) EV abundance Log2_FC (WT+ISRIB/WT, 50 nM, 24 h): −0.2546 | Hist1h1b (H1-5) EV abundance Cohen's d (WT+ISRIB/WT, 50 nM, 24 h): −0.4556 | Hist1h1b (H1-5) EV abundance Log2_FC (WT+ISRIB/WT, 50 nM, 24 h): −0.08676 | Hnrnpc (HNRNPC) EV abundance Cohen's d (WT+ISRIB/WT, 50 nM, 24 h): 1.199
